Experimental data taken from US12583854B2, “KRAS G12C inhibitors and methods of using the same” (Amgen Inc., priority 2018, dated 2026).

Target: GDP-bound KRAS protein (aa 1-169), containing both G12C and C118A amino acid substitutions (Homo sapiens, UniProt P01116, C118A/G12C)
Test: Coupled Nucleotide Exchange Assay
Format: biochemical
Details: 5 min compound pre-incubation; SOS-mediated nucleotide exchange, AlphaScreen
Method: Following compound pre-incubation, purified SOS protein (aa 564-1049) and GTP (Roche 10106399001) were added to the assay wells and incubated for an additional 30 min. To determine the extent of inhibition of SOS-mediated nucleotide exchange, purified GST-tagged cRAF (aa 1-149), nickel chelate AlphaLISA acceptor beads (PerkinElmer AL108R), and AlphaScreen glutathione donor beads (PerkinElmer 6765302) were added to the assay wells and incubated for 10 minutes. The assay plates were then read on a PerkinElmer EnVision Multilabel Reader, using AlphaScreen® technology, and data were analyzed using a 4-parameter logistic model to calculate IC50 values.

Sequence of GDP-bound KRAS protein (aa 1-169), containing both G12C and C118A amino acid substitutions (P01116 1-169 isoform P01116-2 G12C/C118A): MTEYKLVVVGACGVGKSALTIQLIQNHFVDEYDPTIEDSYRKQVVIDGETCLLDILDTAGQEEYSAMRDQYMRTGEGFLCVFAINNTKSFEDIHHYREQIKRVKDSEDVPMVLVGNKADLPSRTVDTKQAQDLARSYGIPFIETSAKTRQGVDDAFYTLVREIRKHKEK

SMILES | Coupled exchange IC50 (5 min; μM)
C=CC(=O)N1CCN(c2c(C#N)c(=O)n(-c3c(C)ccnc3C(C)C)c3nc(-c4ccccc4F)c(Cl)cc23)C[C@H]1C (single isomer, unassigned) [Example 6.6] | 0.92 µM
C=CC(=O)N1C[C@H](C)N(c2c(C#N)c(=O)n(-c3c(C)ccnc3C(C)C)c3nc(-c4ccccc4F)c(Cl)cc23)C[C@H]1C (single isomer, unassigned) [Example 7.4] | 17.6 µM
C=CC(=O)N1C[C@H](C)N(c2c(C#N)c(=O)n(-c3c(C)ccnc3C(C)C)c3nc(-c4ccccc4F)c(Cl)cc23)C[C@H]1C (single isomer, unassigned) [Example 7.5] | 2.27 µM
C=CC(=O)N1[C@H](C)CN(c2c(C#N)c(=O)n(-c3c(C)ccnc3C(C)C)c3nc(-c4ccccc4F)c(Cl)cc23)C[C@@H]1C (single isomer, unassigned) [Example 7.6] | 0.32 µM
C=CC(=O)N1CCN(c2c(C#N)c(=O)n(-c3c(N(C)C)ccnc3C(C)C)c3nc(-c4ccccc4F)c(Cl)cc23)CC1 (single isomer, unassigned) [Example 8.3, 4-(4-acryloylpiperazin-1-yl)-6-chloro-1-(4-(dimethylamino)-2-isopropylpyridin-3-yl)-7-(2-fluorophenyl)-2-oxo-1,2-dihydro-1,8-naphthyridine-3-carbonitrile] | 0.42 µM
C=CC(=O)N1CCN(c2c(C#N)c(=O)n(-c3c(C(C)C)ncnc3C(C)C)c3nc(-c4ccccc4CN(C)C)c(Cl)cc23)CC1 [Example 1, 4-(4-Acryloylpiperazin-1-yl)-6-chloro-1-(4,6-diisopropylpyrimidin-5-yl)-7-(2-((dimethylamino)methyl)phenyl)-2-oxo-1,2-dihydro-1,8-naphthyridine-3-carbonitrile] | 4.13 µM
C=CC(=O)N1CCN(c2c(C#N)c(=O)n(-c3c(CN(C)C)ccnc3C(C)C)c3nc(-c4ccccc4F)c(Cl)cc23)CC1 [Example 2, 4-(4-Acryloylpiperazin-1-yl)-6-chloro-1-(4-((dimethylamino)methyl)-2-isopropylpyridin-3-yl)-7-(2-fluorophenyl)-2-oxo-1,2-dihydro-1,8-naphthyridine-3-carbonitrile] | 0.061 µM
C=CC(=O)N1CCN(c2c(C#N)c(=O)n(-c3c(CN(C)C)ccnc3C(C)C)c3nc(-c4ccccc4F)c(Cl)cc23)CC1 [Example 2.1, 4-(4-acryloylpiperazin-1-yl)-6-chloro-1-(4-((dimethylamino)methyl)-2-isopropylpyridin-3-yl)-7-(2-fluorophenyl)-2-oxo-1,2-dihydro-1,8-naphthyridine-3-carbonitrile] | 0.18 µM
C=CC(=O)N1CCN(c2c(C#N)c(=O)n(-c3c(CN(C)C)ccnc3C(C)C)c3nc(-c4ccccc4F)c(Cl)cc23)CC1 [Example 2.2, 4-(4-acryloylpiperazin-1-yl)-6-chloro-1-(4-((dimethylamino)methyl)-2-isopropylpyridin-3-yl)-7-(2-fluorophenyl)-2-oxo-1,2-dihydro-1,8-naphthyridine-3-carbonitrile] | 5.71 µM
C=CC(=O)N1CCN(c2c(C#N)c(=O)n(-c3c(C)ccnc3C(C)C)c3nc(-c4ccccc4F)c(Cl)cc23)C[C@@H]1C [Example 6.1, (S)-4-(4-acryloyl-3-methylpiperazin-1-yl)-6-chloro-7-(2-fluorophenyl)-1-(2-isopropyl-4-methylpyridin-3-yl)-2-oxo-1,2-dihydro-1,8-naphthyridine-3-carbonitrile] | 1.57 µM
C=CC(=O)N1CCN(c2c(C#N)c(=O)n(-c3c(C)ccnc3C(C)C)c3nc(-c4ccccc4F)c(Cl)cc23)CC1 [Example 6.4, 4-(4-acryloylpiperazin-1-yl)-6-chloro-7-(2-fluorophenyl)-1-(2-isopropyl-4-methylpyridin-3-yl)-2-oxo-1,2-dihydro-1,8-naphthyridine-3-carbonitrile] | 0.73 µM

Further lines, results first:

Coupled exchange IC50 (5 min; μM) | SMILES
3.26 µM | C=CC(=O)N1CCN(c2c(C#N)c(=O)n(-c3c(N(C)C)ccnc3C(C)C)c3nc(-c4ccccc4F)c(Cl)cc23)CC1 (single isomer, unassigned) [Example 8.5, 4-(4-acryloylpiperazin-1-yl)-6-chloro-1-(4-(dimethylamino)-2-isopropylpyridin-3-yl)-7-(2-fluorophenyl)-2-oxo-1,2-dihydro-1,8-naphthyridine-3-carbonitrile]
1.55 µM | C=CC(=O)N1CCN(c2c(C#N)c(=O)n(-c3c(C(C)C)ccnc3N(C)C)c3nc(-c4ccccc4F)c(Cl)cc23)CC1 (single isomer, unassigned) [Example 8.7, 4-(4-acryloylpiperazin-1-yl)-6-chloro-1-(2-(dimethylamino)-4-isopropylpyridin-3-yl)-7-(2-fluorophenyl)-2-oxo-1,2-dihydro-1,8-naphthyridine-3-carbonitrile]
0.71 µM | C=CC(=O)N1CCN(c2c(C#N)c(=O)n(-c3c(C)ccnc3C(C)C)c3nc(-c4ccccc4C)c(Cl)cc23)CC1 (single isomer, unassigned) [Example 11, 4-(4-Acryloylpiperazin-1-yl)-6-chloro-1-(2-isopropyl-4-methylpyridin-3-yl)-2-oxo-7-(o-tolyl)-1,2-dihydro-1,8-naphthyridine-3-carbonitrile]
1.96 µM | C=CC(=O)N1CCN(c2c(C#N)c(=O)n(-c3c(C)ccnc3C(C)C)c3nc(-c4ccccc4C(C)C)c(Cl)cc23)CC1 (single isomer, unassigned) [Example 11.2, 4-(4-acryloylpiperazin-1-yl)-6-chloro-1-(2-isopropyl-4-methylpyridin-3-yl)-7-(2-isopropylphenyl)-2-oxo-1,2-dihydro-1,8-naphthyridine-3-carbonitrile]
82.1 µM | C=CC(=O)N1CCN(c2c(C#N)c(=O)n(-c3c(C(C)C)ccnc3C(C)C)c3nc(Cl)c(F)cc23)CC1 [Example 9, 4-(4-Acryloylpiperazin-1-yl)-7-chloro-1-(2,4-diisopropylpyridin-3-yl)-6-fluoro-2-oxo-1,2-dihydro-1,8-naphthyridine-3-carbonitrile]
25.1 µM | C=CC(=O)N1CCN(c2c(C#N)c(=O)n(-c3c(C(C)C)ncnc3C(C)C)c3nc(Cl)c(Cl)cc23)CC1 [Example 9.1, 4-(4-acryloylpiperazin-1-yl)-6,7-dichloro-1-(4,6-diisopropylpyrimidin-5-yl)-2-oxo-1,2-dihydro-1,8-naphthyridine-3-carbonitrile]
36 µM | C=CC(=O)N1CCN(c2c(C#N)c(=O)n(-c3c(C)ccnc3C(C)C)c3nc(Cl)c(Cl)cc23)CC1 [Example 9.2, 4-(4-acryloylpiperazin-1-yl)-6,7-dichloro-1-(2-isopropyl-4-methylpyridin-3-yl)-2-oxo-1,2-dihydro-1,8-naphthyridine-3-carbonitrile]
0.94 µM | C=CC(=O)N1CCN(c2c(C#N)c(=O)n(-c3c(C(C)C)ccnc3C(C)C)c3nc(-c4ccccc4C)c(F)cc23)CC1 [Example 10, 4-(4-Acryloylpiperazin-1-yl)-1-(2,4-diisopropylpyridin-3-yl)-6-fluoro-2-oxo-7-(o-tolyl)-1,2-dihydro-1,8-naphthyridine-3-carbonitrile]
0.65 µM | C=CC(=O)N1CCN(c2c(C#N)c(=O)n(-c3c(C(C)C)ccnc3C(C)C)c3nc(-c4ccccc4F)c(F)cc23)CC1 [Example 10.1, 4-(4-acryloylpiperazin-1-yl)-1-(2,4-diisopropylpyridin-3-yl)-6-fluoro-7-(2-fluorophenyl)-2-oxo-1,2-dihydro-1,8-naphthyridine-3-carbonitrile]
0.45 µM | C=CC(=O)N1CCN(c2c(C#N)c(=O)n(-c3c(C(C)C)ccnc3C(C)C)c3nc(-c4ccccc4C)c(F)cc23)CC1 [Example 10.2, 4-(4-acryloylpiperazin-1-yl)-1-(2,4-diisopropylpyridin-3-yl)-6-fluoro-2-oxo-7-(o-tolyl)-1,2-dihydro-1,8-naphthyridine-3-carbonitrile]
0.83 µM | C=CC(=O)N1CCN(c2c(C#N)c(=O)n(-c3c(C(C)C)ccnc3C(C)C)c3nc(-c4ccccc4C)c(F)cc23)CC1 [Example 10.3, 4-(4-acryloylpiperazin-1-yl)-1-(2,4-diisopropylpyridin-3-yl)-6-fluoro-2-oxo-7-(o-tolyl)-1,2-dihydro-1,8-naphthyridine-3-carbonitrile]
0.44 µM | C=CC(=O)N1CCN(c2c(C#N)c(=O)n(-c3c(C(C)C)ccnc3C(C)C)c3nc(-c4ccccc4F)c(F)cc23)CC1 [Example 10.4, 4-(4-acryloylpiperazin-1-yl)-1-(2,4-diisopropylpyridin-3-yl)-6-fluoro-7-(2-fluorophenyl)-2-oxo-1,2-dihydro-1,8-naphthyridine-3-carbonitrile]
0.36 µM | C=CC(=O)N1CCN(c2c(C#N)c(=O)n(-c3c(C(C)C)ccnc3C(C)C)c3nc(-c4ccccc4F)c(F)cc23)CC1 [Example 10.5, 4-(4-acryloylpiperazin-1-yl)-1-(2,4-diisopropylpyridin-3-yl)-6-fluoro-7-(2-fluorophenyl)-2-oxo-1,2-dihydro-1,8-naphthyridine-3-carbonitrile]
